One experiment concerns DAPI. The experiment in a line: TAG lipid buildup inhibition with viability readout – cell-based, panel, Nile Red and DAPI fluorescence, H9c2, dose response (AID 651630).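 Further: cells exposed to compound overnight before fixation and staining.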 The note with it: H9c2 cells, DAPI nuclear fluorescence (cytotoxicity counter-readout), oleic acid.
In another experiment the test system is TAG. The experiment is described as above. To be noted: H9c2 cells, Nile Red TAG fluorescence, oleic acid.

SMILES strings stand for the structures. Active and inactive are the calls of the source.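 How the source made its calls: active means lipid-stain IC50 at or below a set limit, with nuclear-stain toxicity IC50 at least five times higher; inactive means the rest.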 Bounds are passed on as bounds.

As usually defined, the IC50 is the concentration at which inhibition is half-maximal. On to `CC(=O)c1cccc(-c2ccnc3c2CC(C(=O)NCc2ccco2)O3)c1` (stereo not drawn), for which the IC50 cytotoxicity (DAPI nuclear signal decrease) with DAPI (mean of runs) is > 25 µM (inactive); in the experiment with DAPI (run 1), > 25 µM; in the experiment on DAPI (run 2) it was > 25 µM. For the same compound, the IC50 in the experiment with TAG (mean of runs) was > 25 µM (inactive); in the experiment on TAG (run 1), > 25 µM; in the experiment with TAG (run 2) it was > 25 µM.

On to `CCC(C)(C)NC(=O)C(c1cccn1C)N(Cc1ccc(OC)cc1)C(=O)Cn1nnc2ccccc21` (stereo not drawn), for which the figures for the IC50 cytotoxicity (DAPI nuclear signal decrease) with DAPI (mean of runs), in the experiment with DAPI (run 1) and in the experiment on DAPI (run 2) were > 25 µM (inactive), > 25 µM and > 25 µM, respectively. In addition, the IC50 in the experiment on TAG (mean of runs) was > 25 µM (inactive); in the experiment with TAG (run 1) it was > 25 µM; with TAG (run 2) it was > 25 µM.

For `CCCCOc1ccccc1NC(=O)Cn1c(-c2nonc2N)nc2ccccc21`, the IC50 cytotoxicity (DAPI nuclear signal decrease) in the experiment with DAPI (mean of runs) is > 25 µM (inactive); in the experiment with DAPI (run 1) it was > 25 µM; in the experiment with DAPI (run 2), > 25 µM. The IC50 in the experiment with TAG (mean of runs) is > 25 µM (inactive); in the experiment with TAG (run 1) it was > 25 µM; in the experiment with TAG (run 2) it was > 25 µM.

With `O=[N+]([O-])c1cccc(S(=O)(=O)N2CN(c3ccc(Br)cc3)c3nc4ccccc4nc32)c1`, the figures for the IC50 cytotoxicity (DAPI nuclear signal decrease) with DAPI (mean of runs), with DAPI (run 1) and in the experiment on DAPI (run 2) were > 25 µM (inactive), > 25 µM and > 25 µM, respectively. Besides, the figures for the IC50 with TAG (mean of runs), with TAG (run 1) and in the experiment with TAG (run 2) were 8.37 µM, 8.4 µM and 8.34 µM, respectively.

Turning to `Cc1cccc2cc(C#N)c(SCC(=O)NNC(=O)Cc3ccccc3)nc12`, the IC50 cytotoxicity (DAPI nuclear signal decrease) was > 25 µM (inactive) in the experiment with DAPI (mean of runs), > 25 µM in the experiment on DAPI (run 1) and > 25 µM in the experiment with DAPI (run 2). Further, the IC50 with TAG (mean of runs) is > 25 µM (inactive); with TAG (run 1) it was > 25 µM; in the experiment on TAG (run 2), > 25 µM.

As to `O=C(CC1C[C@H](C(=O)N2CCCCC2)[C@@]2(CCc3ccccc3)c3[nH]c4ccccc4c3CCN2C1=O)NCc1cccc(C(F)(F)F)c1` (stereo partly drawn), the results for the IC50 cytotoxicity (DAPI nuclear signal decrease) in the experiment on DAPI (mean of runs), with DAPI (run 1) and with DAPI (run 2) were > 25 µM (inactive), > 25 µM and > 25 µM, respectively. For the same compound, the IC50 is 5.34 µM in the experiment with TAG (mean of runs), 4.84 µM with TAG (run 1) and 5.84 µM in the experiment on TAG (run 2).

With `O=c1cc(-c2ccccc2)[nH]c2ccc(F)cc12`, the IC50 cytotoxicity (DAPI nuclear signal decrease) was > 25 µM (inactive) in the experiment on DAPI (mean of runs), > 25 µM in the experiment with DAPI (run 1) and > 25 µM in the experiment on DAPI (run 2). Also, the IC50 with TAG (mean of runs) was > 25 µM (inactive); in the experiment with TAG (run 1), > 25 µM; in the experiment with TAG (run 2), > 25 µM.

As to `CC(=O)OC12COC1CC(O)C1(C)C(=O)C(O)C3=C(C)C(O)CC(O)(C(OC(=O)c4ccccc4)C21)C3(C)C` (stereo not drawn), the figures for the IC50 cytotoxicity (DAPI nuclear signal decrease) in the experiment with DAPI (mean of runs), in the experiment with DAPI (run 1) and with DAPI (run 2) were > 25 µM (inactive), > 25 µM and > 25 µM, respectively. In addition, the IC50 in the experiment on TAG (mean of runs) was 9.4 µM; with TAG (run 1), 9.73 µM; in the experiment with TAG (run 2), 9.07 µM.

In the case of `O=C(Nc1cccc(-c2csc(Nc3cccc(C(F)(F)F)c3)n2)c1)c1cc([N+](=O)[O-])cc(C(F)(F)F)c1`, the IC50 cytotoxicity (DAPI nuclear signal decrease) in the experiment on DAPI (mean of runs) is > 25 µM (inactive); in the experiment with DAPI (run 1), > 25 µM; in the experiment on DAPI (run 2) it was > 25 µM. The IC50 was > 25 µM (inactive) in the experiment with TAG (mean of runs), > 25 µM in the experiment with TAG (run 1) and > 25 µM with TAG (run 2).

For `CCN(C(=O)COC(=O)c1ccc([N+](=O)[O-])o1)c1cccc2ccccc12`, the values for the IC50 cytotoxicity (DAPI nuclear signal decrease) with DAPI (mean of runs), in the experiment with DAPI (run 1) and with DAPI (run 2) were 20 µM (inactive), 18.1 µM and 21.9 µM, respectively. The IC50 is 19.4 µM in the experiment on TAG (run 1) and > 25 µM with TAG (run 2).

On to `O=C(c1cnn2c1NC(c1ccc(Br)cc1)CC2C(F)(F)F)N1CCN(C23CC4CC(CC(C4)C2)C3)CC1` (stereo not drawn), for which the IC50 cytotoxicity (DAPI nuclear signal decrease) in the experiment on DAPI (mean of runs) was > 25 µM (inactive); in the experiment on DAPI (run 1), > 25 µM; in the experiment on DAPI (run 2), > 25 µM. In addition, the IC50 is > 25 µM (inactive) in the experiment with TAG (mean of runs), > 25 µM with TAG (run 1) and > 25 µM with TAG (run 2).

As to `Cc1cc(NC(=O)c2sccc2C)n(-c2nc3ccccc3[nH]2)n1`, the IC50 cytotoxicity (DAPI nuclear signal decrease) in the experiment on DAPI (mean of runs) is > 25 µM (inactive); with DAPI (run 1), > 25 µM; in the experiment with DAPI (run 2) it was > 25 µM. The IC50 in the experiment on TAG (mean of runs) is 20.4 µM (inactive); with TAG (run 1), 19.9 µM; with TAG (run 2), 20.9 µM.

Turning to `COc1ccc(NC(=O)C2(C)Cc3c(-c4ccc5c(c4)OCO5)ccnc3O2)cn1` (stereo not drawn), the values for the IC50 cytotoxicity (DAPI nuclear signal decrease) with DAPI (mean of runs), in the experiment with DAPI (run 1) and with DAPI (run 2) were > 25 µM (inactive), > 25 µM and > 25 µM, respectively. For the same compound, the IC50 is > 25 µM (inactive) in the experiment on TAG (mean of runs), > 25 µM with TAG (run 1) and > 25 µM with TAG (run 2).

In the case of `CCOC(=O)c1cc(-c2ccccc2)sc1NC(=S)Nc1cccc(C)n1`, the IC50 cytotoxicity (DAPI nuclear signal decrease) was > 25 µM (inactive) with DAPI (mean of runs), > 25 µM in the experiment on DAPI (run 1) and > 25 µM in the experiment on DAPI (run 2). The IC50 in the experiment on TAG (mean of runs) is > 25 µM (inactive); with TAG (run 1), > 25 µM; in the experiment with TAG (run 2) it was > 25 µM.

`COc1cc(C(CCN2CCCCC2)c2c(OC)cc(OC)c3c(-c4ccccc4)cc(=O)oc23)cc(OC)c1OC` (stereo not drawn): the IC50 cytotoxicity (DAPI nuclear signal decrease) in the experiment with DAPI (mean of runs) is > 25 µM (inactive); with DAPI (run 1), > 25 µM; in the experiment with DAPI (run 2), > 25 µM. Further, the IC50 with TAG (mean of runs) is > 25 µM (inactive); in the experiment with TAG (run 1), > 25 µM; in the experiment on TAG (run 2), > 25 µM.

Consider `O=C(Nc1sc2c(c1-c1nc3ccccc3[nH]1)CCCC2)C1CCCC1`, for which the IC50 cytotoxicity (DAPI nuclear signal decrease) in the experiment with DAPI (mean of runs) is > 25 µM (inactive); in the experiment on DAPI (run 1), > 25 µM; in the experiment with DAPI (run 2), > 25 µM. The IC50 with TAG (mean of runs) is 7.22 µM; in the experiment on TAG (run 1), 4.9 µM; in the experiment with TAG (run 2), 9.54 µM.

In the case of `COc1cc2c(cc1[N+](=O)[O-])-c1ccc([N+](=O)[O-])cc1C2=NNC(N)=S`, the IC50 cytotoxicity (DAPI nuclear signal decrease) was > 25 µM (inactive) with DAPI (mean of runs), > 25 µM with DAPI (run 1) and > 25 µM in the experiment with DAPI (run 2). Also, the IC50 with TAG (mean of runs) is > 25 µM (inactive); in the experiment with TAG (run 1) it was > 25 µM; with TAG (run 2), > 25 µM.

With `Cc1ccc(Oc2ccc(S(=O)(=O)N3CCOCC3)cc2C(N)=O)c(-n2nc3ccccc3n2)c1`, the IC50 cytotoxicity (DAPI nuclear signal decrease) was > 25 µM (inactive) with DAPI (mean of runs), > 25 µM in the experiment with DAPI (run 1) and > 25 µM with DAPI (run 2). The IC50 was > 25 µM (inactive) in the experiment with TAG (mean of runs), > 25 µM with TAG (run 1) and > 25 µM with TAG (run 2).

In the case of `COc1ccc(-c2sc3ccc(N4CCOCC4)cc3c2C#CCCO)cc1`, the IC50 cytotoxicity (DAPI nuclear signal decrease) in the experiment on DAPI (mean of runs) is > 25 µM (inactive); with DAPI (run 1), > 25 µM; in the experiment on DAPI (run 2), > 25 µM. Besides, the figures for the IC50 with TAG (mean of runs), with TAG (run 1) and in the experiment with TAG (run 2) were > 25 µM (inactive), > 25 µM and > 25 µM, respectively.

For `COc1cc(NC(=O)c2ccco2)c(OC)cc1NC(=O)CCC(=O)Nc1cccc(C)c1C`, the IC50 cytotoxicity (DAPI nuclear signal decrease) was > 25 µM (inactive) in the experiment on DAPI (mean of runs), > 25 µM in the experiment on DAPI (run 1) and > 25 µM with DAPI (run 2). Besides, the IC50 in the experiment on TAG (run 1) is > 25 µM; in the experiment on TAG (run 2), 22.3 µM.

In the case of `CCN1CCN(Cc2ccc(NC(=O)c3cc(NC(=O)c4cncc(-c5cccs5)c4)cc(OC)c3)cc2C(F)(F)F)CC1`, the IC50 cytotoxicity (DAPI nuclear signal decrease) with DAPI (mean of runs) was > 25 µM (inactive); in the experiment with DAPI (run 1), > 25 µM; with DAPI (run 2) it was > 25 µM. Besides, the figures for the IC50 with TAG (mean of runs), in the experiment on TAG (run 1) and in the experiment on TAG (run 2) were 10.5 µM, 12.4 µM and 8.55 µM, respectively.

Turning to `Nc1ccc2ccccc2c1N=Nc1ccccc1`, the IC50 cytotoxicity (DAPI nuclear signal decrease) in the experiment on DAPI (mean of runs) is > 25 µM (inactive); with DAPI (run 1) it was > 25 µM; in the experiment on DAPI (run 2), > 25 µM. Besides, the results for the IC50 with TAG (mean of runs), in the experiment on TAG (run 1) and in the experiment on TAG (run 2) were 9.51 µM, 8.88 µM and 10.1 µM, respectively.

Turning to `Oc1cccc2cc(-c3ccncc3)cnc12`, the IC50 cytotoxicity (DAPI nuclear signal decrease) was > 25 µM (inactive) in the experiment with DAPI (mean of runs), > 25 µM with DAPI (run 1) and > 25 µM in the experiment on DAPI (run 2). Further, the IC50 with TAG (mean of runs) is > 25 µM (inactive); in the experiment on TAG (run 1), > 25 µM; in the experiment with TAG (run 2), > 25 µM.

With `Cc1cccn2c(=O)c3cc(C(=O)NC4CCCC4)c(=N)n(C4CCCC4)c3nc12`, the results for the IC50 cytotoxicity (DAPI nuclear signal decrease) with DAPI (mean of runs), with DAPI (run 1) and with DAPI (run 2) were > 25 µM (inactive), > 25 µM and > 25 µM, respectively. The IC50 in the experiment on TAG (mean of runs) is 11.9 µM; in the experiment on TAG (run 1), 8.07 µM; in the experiment on TAG (run 2) it was 15.8 µM.

Take `CCCCCC(=C/c1ccccc1)/C=N/Nc1ccc(S(=O)(=O)N2CCOCC2)cc1[N+](=O)[O-]`: the IC50 cytotoxicity (DAPI nuclear signal decrease) with DAPI (run 1) and in the experiment on DAPI (run 2) was > 25 µM each time. In addition, the results for the IC50 with TAG (mean of runs), in the experiment with TAG (run 1) and in the experiment on TAG (run 2) were 2.9 µM, 1.96 µM and 3.83 µM, respectively.

Consider `CC1CC2(C)Oc3ccccc3CC2C(C)C1CNCCCN(C)C` (stereo not drawn), for which the IC50 cytotoxicity (DAPI nuclear signal decrease) is 18.9 µM (inactive) in the experiment on DAPI (mean of runs), 18.4 µM in the experiment on DAPI (run 1) and 19.5 µM in the experiment with DAPI (run 2). Besides, the IC50 with TAG (mean of runs) is > 25 µM (inactive); in the experiment on TAG (run 1), > 25 µM; in the experiment with TAG (run 2) it was > 25 µM.

(Values after PubChem BioAssay AID651630 (Sanford-Burnham Center for Chemical Genomics, 2012).)
